Reference: US9006450B2 (Boehringer Ingelheim International GmbH, priority 2010, dated 2015)
pIC50: −log10 of the molar value.

What follows are compounds tested against T1, human ACC2 (Homo sapiens, UniProt O00763) (assay: ACC2 assay, spectrophotometric 384 well assay (NADH-linked, coupled lactate dehydrogenase/pyruvate kinase)). Details: ACC2 assay, hACC2 construct lacking 128 N-terminal amino acids, 25° C., 340 nm; read-out: IC50.
T1 construct: made in house; host or cells: insect cells (baculoviral expression system)
T1 sequence (O00763 129-2458 limits assumed): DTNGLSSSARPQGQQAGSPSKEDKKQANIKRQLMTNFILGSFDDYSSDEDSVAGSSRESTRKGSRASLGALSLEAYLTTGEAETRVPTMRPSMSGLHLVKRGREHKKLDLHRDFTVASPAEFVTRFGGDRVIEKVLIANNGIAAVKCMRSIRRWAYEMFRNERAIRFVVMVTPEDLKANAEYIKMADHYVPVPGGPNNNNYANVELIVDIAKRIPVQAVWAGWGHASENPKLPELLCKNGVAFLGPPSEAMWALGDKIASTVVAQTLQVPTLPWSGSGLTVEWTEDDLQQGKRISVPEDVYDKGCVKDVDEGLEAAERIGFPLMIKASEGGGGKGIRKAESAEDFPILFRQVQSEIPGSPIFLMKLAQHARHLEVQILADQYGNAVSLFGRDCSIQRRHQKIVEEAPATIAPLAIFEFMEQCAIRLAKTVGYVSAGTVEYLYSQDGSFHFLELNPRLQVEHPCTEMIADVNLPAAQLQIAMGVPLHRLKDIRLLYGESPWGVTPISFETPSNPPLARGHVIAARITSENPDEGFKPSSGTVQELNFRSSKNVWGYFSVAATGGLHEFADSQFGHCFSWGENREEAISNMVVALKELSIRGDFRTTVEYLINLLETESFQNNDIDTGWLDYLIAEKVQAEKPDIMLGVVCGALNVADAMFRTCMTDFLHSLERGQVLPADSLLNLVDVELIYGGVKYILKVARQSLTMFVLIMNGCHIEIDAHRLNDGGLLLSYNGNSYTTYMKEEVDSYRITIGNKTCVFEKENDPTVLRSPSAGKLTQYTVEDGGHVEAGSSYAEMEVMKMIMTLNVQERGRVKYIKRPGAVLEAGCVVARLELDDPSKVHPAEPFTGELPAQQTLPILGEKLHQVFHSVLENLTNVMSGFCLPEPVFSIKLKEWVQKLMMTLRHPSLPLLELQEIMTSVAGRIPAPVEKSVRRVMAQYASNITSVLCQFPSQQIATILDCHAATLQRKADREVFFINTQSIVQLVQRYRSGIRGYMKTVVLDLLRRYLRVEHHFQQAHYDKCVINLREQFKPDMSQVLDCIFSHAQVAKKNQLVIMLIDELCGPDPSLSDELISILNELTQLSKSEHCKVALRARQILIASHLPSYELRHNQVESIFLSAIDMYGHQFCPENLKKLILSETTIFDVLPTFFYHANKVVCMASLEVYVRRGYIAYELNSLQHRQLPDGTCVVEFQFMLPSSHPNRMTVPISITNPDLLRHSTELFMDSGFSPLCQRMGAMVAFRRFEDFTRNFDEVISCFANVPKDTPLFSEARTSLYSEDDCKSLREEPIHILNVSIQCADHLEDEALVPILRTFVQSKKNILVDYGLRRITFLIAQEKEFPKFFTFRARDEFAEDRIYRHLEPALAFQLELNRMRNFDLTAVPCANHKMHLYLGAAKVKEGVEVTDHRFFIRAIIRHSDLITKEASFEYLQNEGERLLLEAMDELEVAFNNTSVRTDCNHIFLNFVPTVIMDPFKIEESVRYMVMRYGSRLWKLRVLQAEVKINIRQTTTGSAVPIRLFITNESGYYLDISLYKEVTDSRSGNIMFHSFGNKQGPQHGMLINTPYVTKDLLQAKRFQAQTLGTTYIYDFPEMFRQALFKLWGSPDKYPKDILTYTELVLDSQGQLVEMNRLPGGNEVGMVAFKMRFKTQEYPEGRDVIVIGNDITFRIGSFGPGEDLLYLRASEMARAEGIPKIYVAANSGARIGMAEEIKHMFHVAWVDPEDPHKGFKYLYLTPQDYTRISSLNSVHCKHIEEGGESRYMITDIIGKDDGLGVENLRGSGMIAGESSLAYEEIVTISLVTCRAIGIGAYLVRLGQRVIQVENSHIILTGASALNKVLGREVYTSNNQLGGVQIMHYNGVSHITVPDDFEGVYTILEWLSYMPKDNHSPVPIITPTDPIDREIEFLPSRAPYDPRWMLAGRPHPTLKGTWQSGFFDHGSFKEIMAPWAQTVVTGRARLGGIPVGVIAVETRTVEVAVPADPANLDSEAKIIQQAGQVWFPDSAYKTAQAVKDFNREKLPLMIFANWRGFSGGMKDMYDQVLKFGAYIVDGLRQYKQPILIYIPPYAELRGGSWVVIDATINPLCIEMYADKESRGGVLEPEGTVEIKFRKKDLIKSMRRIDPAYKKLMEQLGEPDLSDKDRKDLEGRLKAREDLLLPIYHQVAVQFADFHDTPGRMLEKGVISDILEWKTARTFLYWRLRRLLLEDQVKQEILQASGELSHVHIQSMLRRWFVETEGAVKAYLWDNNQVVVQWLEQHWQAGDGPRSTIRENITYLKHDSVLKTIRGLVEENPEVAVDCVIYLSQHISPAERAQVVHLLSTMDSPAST
Format: biochemical
Summary of the method: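 ADP output tracked via pyruvate kinase/lactate dehydrogenase NADH oxidation, slope at 340 nm over 15 min, 25° C, with 500 μM ATP and 200 μM each acetyl-CoA and NADH. Enzyme: insect-cell-expressed human ACC2, N-terminal 128 residues deleted; pH 7.5 Tris with citrate, KHCO3. IC50 from four-parameter regression versus vehicle and no-acetyl-CoA controls.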

Compound | pIC50
COCCOc1ccc(N2CCC(c3ccc([C@H](C)NC(C)=O)cc3)CC2)cc1F [Example 8.21] | 5.82
C[C@H](NC(=O)C1CC1)c1ccc(C2CCN(c3ccnc(Oc4cncnc4)c3)CC2)cc1 [Example 1.108] | 6.03
CC(=O)N[C@@H](C)c1ccc(C2CCN(c3ccc(OCC4CC4)c(Cl)c3)CC2)cc1 [Example 9.46] | 6.25
CC(=O)N[C@@H](C)c1ccc(C2CCN(c3ncc(C(=O)NCC4CCCCN4)cn3)CC2)cc1 (stereo partly drawn) [Example 18.65] | 4.99
CC(=O)N[C@@H](C)c1ccc(C2CCN(c3ccc4c(Cl)cccc4n3)CC2)cc1 [Example 5.32] | 5.42
CC(=O)N[C@@H](C)c1ccc(C2CCN(c3ccc(C4CC4)nn3)CC2)cc1 [Example 1.174] | 5.12
CC(=O)N[C@@H](C)c1ccc(C2CCN(c3ncc(C(=O)NCC4CCCO4)cn3)CC2)cc1 (stereo partly drawn) [Example 18.57] | 4.65
CC(=O)N[C@@H](C)c1ccc(C2CCN(c3cnc(C4CC4)cn3)CC2)cc1 [Example 1.173] | 6.09
CC(=O)N[C@@H](C)c1ccc(C2CCN(c3ccc(F)c(F)c3)CC2)cc1 [Example 1.163] | 6.17
CC(=O)N[C@@H](C)c1ccc(C2CCN(c3ncc(-c4ccc(C5CC5)cc4)cn3)CC2)cc1 [Example 10.41] | 5.72
CC(=O)N[C@@H](C)c1ccc(C2CCN(c3ncc(C(=O)NCC(O)C(F)(F)F)cn3)CC2)cc1 (stereo partly drawn) [Example 18.63] | 4.64
CC(=O)NC(C)Cc1ccc(C2CCN(c3ccc(OC4CC4)cc3)CC2)cc1 (stereo not drawn) [Example 2.9] | 6.34
CC(=O)N[C@@H](C)c1ccc(C2CCN(c3ccnc(OC(C)C4CC4)c3)CC2)cc1 (stereo partly drawn) [Example 19.27] | 6.39
CC(=O)N[C@@H](C)c1ccc(C2CCN(c3ncc(C(=O)N(C)C4CC4)cn3)CC2)cc1 [Example 18.26] | 5.60
CCOc1ccc(-c2ccnc(N3CCC(c4ccc([C@H](C)NC(C)=O)cc4)CC3)n2)cc1 [Example 22.12] | 5.48
CCOc1ccc(N2CCC(c3ccc([C@H](C)NC(=O)OC)cc3)CC2)c(OCC)c1 [Example 1.137] | 4.80
CC(=O)N[C@@H](C)c1ccc(C2CCN(c3ncc(C(=O)NC4CCNCC4)cn3)CC2)cc1 [Example 18.79] | 4.78
CC(=O)N[C@@H](C)c1ccc(C2CCN(c3cc(C#N)ccn3)CC2)cc1 [Example 5.28] | 5.10
CC(=O)N[C@@H](C)c1ccc(C2CCN(c3ccc(OCC(C)C)cc3)CC2)cc1 [Example 3.7] | 6.13
CCOc1ccc(N2CCC(c3ccc([C@H](C)NC(=O)Nc4ncccn4)cc3)CC2)cc1 [Example 14.56] | 4.83
CCNC(=O)c1cnc(N2CCC(c3ccc([C@H](C)NC(C)=O)cc3)CC2)nc1 [Example 18.90] | 5.92
COc1ccnc(N2CCC(c3ccc([C@H](C)NC(C)=O)cc3)CC2)c1 [Example 4.16] | 5.96
CCCCNc1cc(N2CCC(c3ccc([C@H](C)NC(C)=O)cc3)CC2)ncn1 [Example 11.62] | 5.48

Compound | pIC50
CCOc1ccc(N2CCC(c3ccc([C@H](C)NC(=O)CNC(=O)OC(C)(C)C)cc3)CC2)cc1 [Example 6.49] | 5.08
COc1cncc(N2CCC(c3ccc([C@H](C)NC(C)=O)cc3)CC2)c1 [Example 15.9] | 4.70
CC(=O)N[C@@H](C)c1ccc(C2CCN(c3cc(Cl)ccn3)CC2)cc1 [Example 5.13] | 5.52
CCCCOc1ccc(N2CCC(c3ccc([C@H](C)NC(C)=O)cc3)CC2)cc1C [Example 8.40] | 5.85
CC(=O)NC(C)Cc1ccc(C2CCN(c3ccnc(N(C)C4CCCC4)n3)CC2)cc1 (stereo not drawn) [Example 12.1, N-[2-(4-{1-[2-(Cyclopentyl-methyl-amino)-pyrimidin-4-yl]-piperidin-4-yl}-phenyl)-1-methyl-ethyl]-acetamide] | 6.21
CCOc1ccc(N2CCC(c3ccc([C@H](C)NC(=O)Cn4ccnc4)cc3)CC2)cc1 [Example 6.28] | 5.89
CC(=O)N[C@@H](C)c1ccc(C2CCN(c3ncc(C(=O)NCCn4ccnc4)cn3)CC2)cc1 [Example 18.73] | 4.75
CC(=O)N[C@@H](C)c1ccc(C2CCN(c3ccc4[nH]c(C)cc4c3)CC2)cc1 [Example 1.76] | 5.72
CC(=O)N[C@@H](C)c1ccc(C2CCN(c3ccc4c(c3)OCO4)CC2)cc1 [Example 1.67] | 6.44
CC(=O)N[C@@H](C)c1ccc(C2CCN(c3ncc(C(=O)NCc4ncccn4)cn3)CC2)cc1 [Example 18.34] | 5.46
CC(=O)N[C@@H](C)c1ccc(C2CCN(c3cc(Cl)nc(N4CCCC4)n3)CC2)cc1 [Example 5.200, (S)—N-(1-{4-[1-(6-Chloro-2-pyrrolidin-1-yl-pyrimidin-4-yl)-piperidin-4-yl]-phenyl}-ethyl)-acetamide] | 5.12
CCOc1ccc(-c2cnc(N3CCC(c4ccc([C@H](C)NC(C)=O)cc4)CC3)nc2)cn1 [Example 10.38] | 5.52
CC(=O)N[C@@H](C)c1ccc(C2CCN(c3cc(NC(C)c4ccccc4)ncn3)CC2)cc1 (stereo partly drawn) [Example 11.40] | 5.09
CC(=O)N[C@@H](C)c1ccc(C2CCN(c3cccc(OC4CCC4)c3)CC2)cc1 [Example 1.88] | 6.27
CCOc1ccc(N2CCC(c3ccc([C@H](C)NC(C)=O)cc3)CC2)nn1 [Example 3.11] | 5.52
CC(=O)N[C@@H](C)c1ccc(C2CCN(c3ncc(C4=CCOCC4)cn3)CC2)cc1 [Example 10.84] | 5.89
CCOc1ccc(N2CCC(c3ccc([C@H](C)NC(=O)COC)cc3)CC2)cc1 [Example 6.15] | 6.00
CC(=O)N[C@@H](C)c1ccc(C2CCN(c3ncc(C(=O)Nc4ccc(C)cc4)cn3)CC2)cc1 [Example 18.17] | 5.10
CC(=O)N[C@@H](C)c1ccc(C2CCN(c3cc(NC4CCOCC4)ncn3)CC2)cc1 [Example 11.74] | 5.08
CC(=O)N[C@@H](C)c1ccc(C2CCN(c3ncc([N+](=O)[O-])cn3)CC2)cc1 [Example 4.39] | 5.72
CC(=O)N[C@@H](C)c1ccc(C2CCN(c3ccc4cc(Cl)ccc4n3)CC2)cc1 [Example 4.10] | 6.17
CC(=O)N[C@@H](C)c1ccc(C2CCN(c3ncc(C(=O)N(C)Cc4ccccc4)cn3)CC2)cc1 [Example 18.93] | 6.10
CC(=O)N[C@@H](C)c1ccc(C2CCN(c3ccc4[nH]cc(C)c4c3)CC2)cc1 [Example 1.75] | 5.66

Stronger by pIC50, values ahead:

pIC50 | Compound
6.59 | C[C@H](NC(=O)C1CC1)c1ccc(C2CCN(c3ccc4c(c3)OCCO4)CC2)cc1 [Example 1.19]
7.30 | CC(=O)N[C@@H](C)c1ccc(C2CCN(c3ncc4nc(-c5cccs5)oc4n3)CC2)cc1 [Example 5.7]
6.62 | C[C@H](NC(=O)N(C)C)c1ccc(C2CCN(c3ncc(C4CC4)cn3)CC2)cc1 [Example 4.304]
7.10 | CC(=O)N[C@@H](C)c1ccc(C2CCN(c3ccc(-c4ccc(C#N)s4)cn3)CC2)cc1 [Example 10.308]
6.74 | CCCC(C)Oc1ccc(N2CCC(c3ccc([C@H](C)NC(C)=O)cc3)CC2)cc1Cl (stereo partly drawn) [Example 8.60]
7.05 | C[C@H](NC(=O)C1CC1)c1ccc(C2CCN(c3ccc(OCC4CC4)cc3)CC2)cc1 [Example 1.16]
6.49 | CC(=O)N[C@@H](C)c1ccc(C2CCN(c3cc(N4CCC5(CC5)C4)ncn3)CC2)cc1 [Example 11.92]
6.48 | CCCCOc1cccc(N2CCC(c3ccc([C@H](C)NC(C)=O)cc3)CC2)c1 [Example 8.6]
6.72 | C[C@H](NC(=O)N(C)C)c1ccc(C2CCN(c3cc(OC4CCC4)ncn3)CC2)cc1 [Example 20.4]
6.54 | CCOc1cc(N2CCC(c3ccc([C@H](C)NC(=O)C4CC4)cc3)CC2)ccn1 [Example 1.20]
6.49 | COc1cncc(-c2cnc(N3CCC(c4ccc([C@H](C)NC(C)=O)cc4)CC3)nc2)c1 [Example 10.68]
7.15 | CC(=O)N[C@@H](C)c1ccc(C2CCN(c3ncc(-c4ccc(F)c(F)c4)cn3)CC2)cc1 [Example 10.52]
6.51 | CC(=O)N[C@@H](C)c1ccc(C2CCN(c3ncc(-c4cc5ccccc5[nH]4)cn3)CC2)cc1 [Example 10.119]
6.48 | COc1cc(-c2cnc(N3CCC(c4ccc([C@H](C)NC(C)=O)cc4)CC3)nc2)ccc1C [Example 10.65]
6.85 | CCC(=O)N[C@@H](C)c1ccc(C2CCN(c3ccc(OCC(C)C)cc3)CC2)cc1 [Example 1.149]
6.92 | CC(C)Oc1cc(N2CCC(c3ccc([C@H](C)NC(=O)N(C)C)cc3)CC2)ccn1 [Example 1.128]
6.68 | CC(=O)N[C@@H](C)c1ccc(C2CCN(c3ccc(OC(C)c4ccccc4)cc3)CC2)cc1 (stereo partly drawn) [Example 9.35]
6.64 | CC(C)COc1ccc(N2CCC(c3ccc([C@H](C)NC(=O)N(C)C)cc3)CC2)nc1 [Example 1.126]
7.05 | CCCCOc1ccc(N2CCC(c3ccc([C@H](C)NC(C)=O)cc3)CC2)cc1F [Example 8.42]
7.10 | CC(=O)N[C@@H](C)c1ccc(C2CCN(c3ccnc(OCC4(C)CC4)c3)CC2)cc1 [Example 19.15]
6.60 | CC(C)Oc1cc(N2CCC(c3ccc([C@H](C)NC(=O)C4CC4)cc3)CC2)ccn1 [Example 1.120]
6.62 | CC(=O)N[C@@H](C)c1ccc(C2CCN(c3ccnc(Oc4ccccc4)n3)CC2)cc1 [Example 11.119]
6.80 | C[C@H](NC(=O)N(C)C)c1ccc(C2CCN(c3ccnc(Oc4ccccc4)c3)CC2)cc1 [Example 1.138]
6.74 | CC(=O)N[C@@H](C)c1ccc(C2CCN(c3ccc4c(c3)OCCCO4)CC2)cc1 [Example 1.44]
6.54 | CC(=O)N[C@@H](C)c1ccc(C2CCN(c3ccnc(C(F)(F)F)n3)CC2)cc1 [Example 4.26]
6.89 | COC(=O)N[C@@H](C)c1ccc(C2CCN(c3ncc4nc(-c5ccccc5)oc4n3)CC2)cc1 [Example 4.48]
